Results: EP0885186B1, “AMINO ACID DERIVATIVES, PHARMACEUTICAL COMPOSITIONS CONTAINING THESE COMPOUNDS AND PROCESSES FOR PREPARING THEM” (Dr. Karl Thomae GmbH, priority 1995, dated 1997)
One block for each compound: values may come before it.

Assays:
[1] = biological target: T1, NPY-Y1 receptor (Homo sapiens, UniProt P25929); test: Studies of binding with SK-N-MC cells, displacement of [125I]-Bolton-Hunter-NPY; conditions: inhibition of specific binding of [125I]-Bolton-Hunter-NPY, 3 hours at ambient temperature
T1 construct: endogenous in cells; host or cells: SK-N-MC cells (whole cells in suspension)
T1 sequence (P25929 1-384): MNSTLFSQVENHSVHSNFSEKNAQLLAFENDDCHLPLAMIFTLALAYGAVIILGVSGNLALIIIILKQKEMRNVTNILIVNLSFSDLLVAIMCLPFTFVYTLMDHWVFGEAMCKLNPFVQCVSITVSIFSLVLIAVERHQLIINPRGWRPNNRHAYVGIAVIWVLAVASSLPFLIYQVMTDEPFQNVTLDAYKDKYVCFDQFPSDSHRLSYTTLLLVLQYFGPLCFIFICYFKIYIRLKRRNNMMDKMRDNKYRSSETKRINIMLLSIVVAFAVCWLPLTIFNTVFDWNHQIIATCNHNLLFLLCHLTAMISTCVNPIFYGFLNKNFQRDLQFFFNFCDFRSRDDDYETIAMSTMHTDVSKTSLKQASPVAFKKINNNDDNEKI
Protocol: A. Studies of binding with SK-N-MC cells (expressing the human Y1-receptor)
The cells are detached using a mixture of 0.02% EDTA in PBS and resuspended in 10 ml of incubation medium (MEM/25 mM Hepes + 0.5% BSA, 50 µM PMSF, 0.1% bacitracin, 3.75 mM CaCl2) per 40 million cells approx. After 5 minutes' centrifuging (150 x g) the pellet is resuspended in the same volume and, after a further washing step in 10 ml of incubation medium, counted and diluted to 1.25 million cells/ml. Then 200 µl of a suspension of 1.25 million cells/ml is incubated for 3 hours at ambient temperature with 25 µl of a 300 pM solution of [^125I]-Bolton-Hunter-NPY and increasing concentrations (10^-11 to 10^-6 M) of the test substances, whilst maintaining a total volume of 250 µl. Incubation is ended by centrifuging (10 minutes at 3000 x g and 4°C). After washing once with PBS, the radioactivity of the pellet is measured in a gamma counter. The radioactivity thus obtained represents the sum of specific and non-specific binding of [^125I]-Bolton-Hunter-NPY. The proportion of non-specific binding is defined as that radioactivity which is bound in the presence of 1 µM NPY. The IC50 values of the unlabelled test substances are determined graphically. They represent the concentration of the test substance in question at which the specific binding of[^125I]-Bolton-Hunter-NPY to the NPY-Y1 receptor is inhibited by 50%.

[2] = test system: NPY activity; test: NPY-antagonism in vitro, isolated perfused rat kidney, NPY-induced perfusion pressure increase; parameters: species or system rats; conditions: inhibition of pressure increase by NPY (1µM) bolus
Protocol: B. NPY-antagonism in vitro
Male rats (CHbb: THOM, 300 to 350 g) are given heparin (100 IU, i.v.) and the animals are then killed by a blow to the back of the neck. The abdomen is opened along the centre of the body and the left kidney is removed after the insertion of catheters in the renal artery, renal vein and ureter. The isolated kidney is immediately perfused with a modified Krebs-Ringer solution having the following composition (4 ml/minute):
A mixture of 95% O2/5% CO2 is passed through the solution which is kept at a temperature of 37°C. The perfusion pressure is measured continuously using a pressure gauge. After a 60 minute stabilisation period the perfusion rate is adjusted so as to obtain a perfusion pressure of approximately 100 mm Hg. After a further 30 minutes the experiment is started and NPY (1µM) is administered as a bolus (0.1 ml) at 15 minute intervals until the pressure increase observed reaches a constant value. The compounds to be tested are given in the form of a continuous infusion over a period of 5 minutes and then NPY is injected. After a 30 minute wash-out period the next highest concentration of test substance is investigated. 3 to 5 different concentrations of the particular compound are tested on each occasion. […]

[3] = test system: NPY-induced blood pressure effects; test: In vivo NPY-antagonism, pithed rats, NPY-induced increase in diastolic blood pressure; conditions: test substance injected 1 min before NPY 10 µg/kg i.v.
Protocol: C. In vivo NPY-antagonism
Male rats of normal blood pressure (Chbb:THOM, 300 to 350 g) are anaesthetised with sodium hexobarbital (150 mg/kg, i.p.). After intubation of the trachea the animals are pithed by introducing a blunt needle through the eye into the spinal bone marrow channel. The animals are ventilated with oxygen-rich ambient air using a respiratory pump (20 strokes/minute). A cannula is inserted in the left carotid artery and the arterial blood pressure is measured using a pressure gauge (Braun Melsungen Combitrans) connected to a recording device. For injection purposes a catheter is placed in the left jugular vein through which heparin is administered (200 IU/kg, i.v.). After the blood pressure has been stabilised, the animals are given 2 bolus injections of NPY (10 µg/kg, i.v.) at intervals of 15 minutes. The average increase in diastolic blood pressure is taken as the reference value (= 100%). The test substances are injected in increasing doses (4 to 6 doses) at intervals of 15 minutes. One minute after administration of the test substance, NPY is administered.
The antagonistic effect of the test substances is determined by plotting the percentage inhibition of the NPY-induced blood pressure effects against the logarithm of the concentration of active substance.

[4] = test system: NPY-induced food intake; test: Food intake in satiated rats after NPY application to the paraventricular nucleus; format: in vivo; conditions: for Food intake following NPY application: 2 h intake, satiated rats; for % Inhibition of food intake: versus vehicle + NPY
Protocol: D. In vivo Studies in rats: Food intake in satiated rats
For these determinations food intake was measured in normal satiated rats after application of NPY to the paraventricular nucleus (PVN) in the presence or absence of the test compound. Male Chbb: Thom rats weighing between 300 and 350 g were used for all experiments. The rats were individually housed in stainless steel cages where water and food were available ad libitum.
Rats under Pentobarbital anaesthesia were stereotactically implanted with a stainless steel double guide cannula targeted bilaterally at the PVNs. Stereotactic coordinates were: -1.8mm caudal, 0.5mm lateral to bregma and 7.0mm below the skull surface. Injection cannulae extended the guide cannulae by 1 mm. Animals were allowed to recover from surgery for at least 10 days before being used in the experiments. Rats were handled and mock-injected during the one-week recovery period to habituate them to the injection procedure.
Animals treated with both test compounds and NPY were treated first with the test compound. Then, 15 min. after PVN infusion of the test compound or vehicle (control) 1 µg of NPY was administered by PVN infusion.
Food intake was measured by placing preweighed pellets into the cages at the time of NPY injection. Pellets were removed from the cage at 2 h post NPY injection. The food intake of animals treated with test compound was calculated as a percentage of the food intake of control animals, i.e., animals treated with vehicle.

[5] = test system: food-deprived rats; test: Food intake in food-deprived rats; format: in vivo; conditions: 24 hour food deprived rats, 15 µg, bilaterally, into PVN
Protocol: Food intake in food-deprived rats
Food-deprivation experiments were conducted with male Chbb:Thom rats weighing between 300 and 350 g. The animals were individually housed for the duration of the study and allowed free access to normal food together with tap water. Food was removed from the animals for 24 hours starting at 8:00 a.m. At the end of the fasting period compound or vehicle was administered to the animals by infusion into the PVN. Food was returned to the animals and their food intake monitored at various time periods during the following 24 hour period. The food intake of animals treated with test compound was calculated as a percentage of the food intake of control animals (i.e., animals treated with vehicle).

pIC50 [2]: 8.12 mol/l
Compound: N=C(N)NCCC[C@@H](NC(=O)C(c1ccccc1)c1ccccc1)C(=O)NCc1ccc(CNC(N)=O)cc1 [(A), (R)-N-[[4-(aminocarbonylaminomethyl)phenyl]methyl]-N^2-(diphenylacetyl)-argininamide]
Food intake following NPY application ([4]; 15 µg of compound by PVN infusion 15 min before 1 µg NPY): 2.62 g/animal
% Inhibition of food intake ([4]; 15 µg of compound by PVN infusion): 25.9%
Food intake following NPY application ([4]; 30 µg of compound by PVN infusion 15 min before 1 µg NPY): 1.67 g/animal
% Inhibition of food intake ([4]; 30 µg of compound by PVN infusion): 52.8%
Food intake following NPY application ([4]; 60 µg of compound by PVN infusion 15 min before 1 µg NPY): 1.07 g/animal
% Inhibition of food intake ([4]; 60 µg of compound by PVN infusion): 69.8%
duration of significant reduction in food intake [5]: at least 4 h
pID50 [3]: 8.11 mol/kg

IC50 [1]: 630 pM
Compound: N=C(N)NCCC[C@@H](NC(=O)C(c1ccccc1)c1ccccc1)C(=O)NCc1ccc(CC(N)=O)cc1 [(C), (R)-N-[[4-(aminocarbonylmethyl)phenyl]methyl]-N^2-(diphenylacetyl)-argininamide]

IC50 [1]: 750 pM
Compound: CCNC(=O)NCc1ccc(CNC(=O)[C@@H](CCCNC(=N)N)NC(=O)C(c2ccccc2)c2ccccc2)cc1 [(D), (R)-N^2-(diphenylacetyl)-N-[[4-(ethylaminocarbonylamino-methyl)phenyl]methyl]-argininamide]

IC50 [1]: 400 pM
Compound: CCOC(=O)CNC(=O)NCc1ccc(CNC(=O)[C@@H](CCCNC(=N)N)NC(=O)C(c2ccccc2)c2ccccc2)cc1 [(E), (R)-N^2-(diphenylacetyl)-N-[[4-(ethoxycarbonylmethylamino-carbonylaminomethyl)-phenyl)methyl]-argininamide]

IC50 [1]: 170 pM
Compound: N=C(N)NCCC[C@@H](NC(=O)C(c1ccc(O)cc1)c1ccc(O)cc1)C(=O)NCc1ccc(CNC(N)=O)cc1 [(G), (R)-N-[[4-(aminocarbonylaminomethyl)phenyl]methyl]-N^2-[bis-(4-hydroxyphenyl)-acetyl]-argininamide]

Continued, compound first:

Compound: CN(CCCC(NC(=O)C(c1ccccc1)c1ccccc1)C(=O)NCc1ccc(O)cc1)C(=N)N (racemic) [(B), (R,S)-N^5-(aminoiminomethyl)-N^2-(diphenylacetyl)-N-[(4-hydroxyphenyl)methyl]-N^5-methyl-ornithinamide]
IC50 [1]: 620 pM
pIC50 [2]: 8.41 mol/l
pID50 [3]: 7.87 mol/kg

Compound: N=C(N)NCCC[C@@H](NC(=O)C(c1ccc(Cl)cc1)c1ccc(Cl)cc1)C(=O)NCc1ccc(CNC(N)=O)cc1 [(F), (R)-N-[[4-(aminocarbonylaminomethyl)phenyl]methyl]-N^2-[bis-(4-chlorophenyl)-acetyl]-argininamide]
IC50 [1]: 350 pM

Compound: NPY: NPY, agonist applied to the paraventricular nucleus (1 µg) to elicit feeding response in satiated rats
two hour food intake ([4]; NPY 1µg into PVN, 0.5 g in animals injected with vehicle): 3.5 g
